In this assay the target is Cruzipain (Trypanosoma cruzi, UniProt P25779). The experiment in a line: Inhibition of Trypanosoma cruzi cruzain.

SMILES strings stand for the structures.

Sequence of Cruzipain (P25779 whole entry): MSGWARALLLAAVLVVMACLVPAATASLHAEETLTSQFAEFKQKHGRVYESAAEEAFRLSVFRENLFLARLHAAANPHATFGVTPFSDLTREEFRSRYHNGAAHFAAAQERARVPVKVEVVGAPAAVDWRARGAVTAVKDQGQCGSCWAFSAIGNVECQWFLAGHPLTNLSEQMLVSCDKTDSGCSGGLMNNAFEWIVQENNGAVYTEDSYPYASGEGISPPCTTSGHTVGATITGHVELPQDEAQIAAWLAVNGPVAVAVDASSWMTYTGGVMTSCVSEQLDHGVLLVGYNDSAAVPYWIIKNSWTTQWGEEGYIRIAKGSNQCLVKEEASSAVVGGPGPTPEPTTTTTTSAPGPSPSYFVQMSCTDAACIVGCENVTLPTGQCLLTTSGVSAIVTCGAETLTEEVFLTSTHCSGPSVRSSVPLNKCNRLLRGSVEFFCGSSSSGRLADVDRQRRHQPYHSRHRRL

The compound `O=C(O)C[C@H](CCc1ccccc1)NC(=O)[C@H](Cc1ccccc1)NC(=O)OCc1ccccc1` had a Ki of over 10000 nM.

In turn, `O=C(N[C@@H](Cc1ccccc1)C(=O)N[C@H](CCO)CCc1ccccc1)OCc1ccccc1` had an inhibition constant Ki of over 10000 nM. In the case of `O=C(N[C@@H](Cc1ccccc1)C(=O)N[C@H](CCS)CCc1ccccc1)OCc1ccccc1`, the inhibition constant Ki was over 5010 nM. For `O=C(N[C@@H](Cc1ccccc1)C(=O)N[C@@H](Cc1ccccc1)C(=O)CO)OCc1ccccc1`, the affinity, expressed as Ki, was 145 nM. In turn, `O=C(N[C@@H](Cc1ccccc1)C(=O)N[C@@H](Cc1ccccc1)C(=O)CS)OCc1ccccc1` had a Ki of 4.37 nM.

As usually defined, the Ki is a measure of affinity in units of concentration, obtained from inhibition or displacement. Lower therefore signals tighter binding.

(Values after ChEMBL document CHEMBL1143963, “2D QSAR and similarity studies on cruzain inhibitors aimed at improving selectivity over cathepsin L” (Bioorg Med Chem, 2008).)
